{"source": "ChEMBL document CHEMBL4715874", "about": "“In Vivo Screening of Xanthones from Garcinia oligantha Identified Oliganthin H as a Novel Natural Inhibitor of Convulsions” (J Nat Prod, 2020)", "key": {"[1]": {"assay": "Toxicity in AB zebra fish larvae assessed as mortality at 100 uM after 6 hrs", "parameters": "species or system Danio rerio", "conditions": "zebrafish"}, "[2]": {"assay": "Effect of PRKACAB mRNA expression in AB zebra fish larvae at 25 uM after 6 hrs by qRT-PCR analysis (reference value: 1 +/- 0.03%)", "type": "ADME, Danio rerio", "conditions": "zebrafish"}, "[3]": {"assay": "Neurotoxicity in AB zebra fish larvae at 100 uM after 6 hrs", "type": "toxicity, Danio rerio", "conditions": "zebrafish"}, "[4]": {"species_on_record": "Danio rerio", "assay": "Anticonvulsant activity in AB zebra fish larvae assessed as PTZ-induced ABAT mRNA expression at 25 uM pretreated for 6 hrs followed by PTZ-stimulation and measured after 30 mins by qRT-PCR analysis (reference value: 2.16 +/- 1.2%)", "type": "functional", "conditions": "time 6.5 hrs"}, "[5]": {"species_on_record": "Danio rerio", "assay": "Anticonvulsant activity in AB zebra fish larvae assessed as PTZ-induced velocity at 6.2 uM pretreated for 6 hrs followed by PTZ-stimulation and measured every 5 mins for 30 mins (reference value: 0.63 +/- 0.23 mm/s)", "type": "functional", "conditions": "time 6.5 hrs"}, "[6]": {"assay": "Effect of glud1a mRNA expression in AB zebra fish larvae at 25 uM after 6 hrs by qRT-PCR analysis (reference value: 1 +/- 0.16%)", "type": "ADME, Danio rerio", "conditions": "zebrafish"}, "[7]": {"assay": "Toxicity in AB zebra fish larvae assessed as maximum tolerated concentration after 6 hrs", "parameters": "species or system Danio rerio", "conditions": "zebrafish, read-out: MTC"}, "[8]": {"species_on_record": "Danio rerio", "assay": "Anticonvulsant activity in AB zebra fish larvae assessed as PTZ-induced number of burst at 12.5 uM pretreated for 6 hrs followed by PTZ-stimulation and measured every 5 mins for 30 mins (reference value: 9.25 +/- 6.36)", "type": "functional", "conditions": "time 6.5 hrs"}, "[9]": {"species_on_record": "Danio rerio", "assay": "Anticonvulsant activity in AB zebra fish larvae assessed as PTZ-induced seizure activity at 6.2 uM pretreated for 6 hrs followed by PTZ-stimulation and measured every 5 mins for 30 mins (reference value: 14.13 +/- 0.004 mm)", "type": "functional", "conditions": "time 6.5 hrs"}, "[10]": {"species_on_record": "Danio rerio", "assay": "Anticonvulsant activity in AB zebra fish larvae assessed as PTZ-induced seizure duration time at 25 uM pretreated for 6 hrs followed by PTZ-stimulation and measured every 5 mins for 30 mins (reference value: 0.32 +/- 0.31 s)", "type": "functional", "conditions": "time 6.5 hrs"}, "[11]": {"species_on_record": "Danio rerio", "assay": "Anticonvulsant activity in AB zebra fish larvae assessed as PTZ-induced seizure activity at 12.5 uM pretreated for 6 hrs followed by PTZ-stimulation and measured every 5 mins for 30 mins (reference value: 14.13 +/- 0.004 mm)", "type": "functional", "conditions": "time 6.5 hrs"}, "[12]": {"species_on_record": "Danio rerio", "assay": "Anticonvulsant activity in AB zebra fish larvae assessed as PTZ-induced velocity at 12.5 uM pretreated for 6 hrs followed by PTZ-stimulation and measured every 5 mins for 30 mins (reference value: 0.63 +/- 0.23 mm/s)", "type": "functional", "conditions": "time 6.5 hrs"}, "[13]": {"assay": "Ratio of MTC for toxicity in AB zebra fish larvae to lowest observed effect concentration for Anticonvulsant activity in AB zebra fish larvae assessed as reduction in PTZ-induced convulsant behavior", "parameters": "species or system Danio rerio"}, "[14]": {"assay": "Effect of BDNF mRNA expression in AB zebra fish larvae at 25 uM after 6 hrs by qRT-PCR analysis (reference value: 1.01 +/- 0.21%)", "type": "ADME, Danio rerio", "conditions": "zebrafish"}, "[15]": {"species_on_record": "Danio rerio", "assay": "Anticonvulsant activity in AB zebra fish larvae assessed as PTZ-induced gat1 mRNA expression at 25 uM pretreated for 6 hrs followed by PTZ-stimulation and measured after 30 mins by qRT-PCR analysis (reference value: 1.63 +/- 0.28%)", "type": "functional", "conditions": "time 6.5 hrs"}, "[16]": {"assay": "Effect of gad1 mRNA expression in AB zebra fish larvae at 25 uM after 6 hrs by qRT-PCR analysis (reference value: 1 +/- 0.11%)", "type": "ADME, Danio rerio", "conditions": "zebrafish"}, "[17]": {"species_on_record": "Danio rerio", "assay": "Anticonvulsant activity in AB zebra fish larvae assessed as PTZ-induced PRKACB mRNA expression at 25 uM pretreated for 6 hrs followed by PTZ-stimulation and measured after 30 mins by qRT-PCR analysis (reference value: 1.49 +/- 0.69%)", "type": "functional", "conditions": "time 6.5 hrs"}, "[18]": {"assay": "Effect of PYYA mRNA expression in AB zebra fish larvae at 25 uM after 6 hrs by qRT-PCR analysis (reference value: 1 +/- 0.13%)", "type": "ADME, Danio rerio", "conditions": "zebrafish"}, "[19]": {"species_on_record": "Danio rerio", "assay": "Anticonvulsant activity in AB zebra fish larvae assessed as PTZ-induced gabra1 mRNA expression at 25 uM pretreated for 6 hrs followed by PTZ-stimulation and measured after 30 mins by qRT-PCR analysis (reference value: 19.68 +/- 3.28%)", "type": "functional", "conditions": "time 6.5 hrs"}, "[20]": {"species_on_record": "Danio rerio", "assay": "Anticonvulsant activity in AB zebra fish larvae assessed as reduction in PTZ-induced convulsant behavior by measuring lowest observed effect concentration pretreated for 6 hrs followed by PTZ-stimulation and measured every 5 mins for 1 hr", "type": "functional", "conditions": "time 7 hrs"}, "[21]": {"assay": "Neurotoxicity in AB zebra fish larvae assessed as increase in total swimming distance at > 12.5 uM after 6 hrs", "type": "toxicity, Danio rerio", "conditions": "zebrafish"}, "[22]": {"species_on_record": "Danio rerio", "assay": "Anticonvulsant activity in AB zebra fish larvae assessed as reduction in PTZ-induced convulsant behavior by measuring swimming distance at 25 uM pretreated for 6 hrs followed by PTZ-stimulation and measured every 5 mins for 1 hr relative to control", "type": "functional", "parameters": "scale not given: the % may be the effect or the level left", "conditions": "time 7 hrs"}, "[23]": {"assay": "Effect of ABAT mRNA expression in AB zebra fish larvae at 25 uM after 6 hrs by qRT-PCR analysis (reference value: 1 +/- 0.11%)", "type": "ADME, Danio rerio", "conditions": "zebrafish"}, "[24]": {"species_on_record": "Danio rerio", "assay": "Anticonvulsant activity in AB zebra fish larvae assessed as PTZ-induced npas4a mRNA expression at 25 uM pretreated for 6 hrs followed by PTZ-stimulation and measured after 30 mins by qRT-PCR analysis (reference value: 25.34 +/- 3.28%)", "type": "functional", "conditions": "time 6.5 hrs"}, "[25]": {"species_on_record": "Danio rerio", "assay": "Anticonvulsant activity in AB zebra fish larvae assessed as PTZ-induced glud1a mRNA expression at 25 uM pretreated for 6 hrs followed by PTZ-stimulation and measured after 30 mins by qRT-PCR analysis (reference value: 1.67 +/- 0.4%)", "type": "functional", "conditions": "time 6.5 hrs"}}, "data": [{"smiles": "CC(C)=CCC/C(C)=C/C[C@@]1(CC=C(C)C)C(=O)C(O)=C(O)c2oc3c4c(cc(O)c3c(=O)c21)OC(C)(C)C=C4", "values": [{"measurement": "Activity", "setting": "[1]", "result": "Toxic"}, {"measurement": "Activity", "setting": "[2]", "result": 0.9, "unit": "%"}, {"measurement": "Activity", "setting": "[3]", "result": "Toxic"}, {"measurement": "Activity", "setting": "[4]", "result": 0.53, "unit": "%"}, {"measurement": "Activity", "setting": "[5]", "result": 1.2, "unit": "millimeter/sec"}, {"measurement": "Activity", "setting": "[6]", "result": 1, "unit": "%"}, {"measurement": "MNTC at 6 h", "setting": "[7]", "result": 50, "unit": "µM"}, {"measurement": "Activity", "setting": "[8]", "result": 153.5}, {"measurement": "Activity", "setting": "[9]", "result": 1210, "unit": "mm"}, {"measurement": "Time", "setting": "[10]", "result": 7.32, "unit": "s"}, {"measurement": "Activity", "setting": "[11]", "result": 600.8, "unit": "mm"}, {"measurement": "Activity", "setting": "[12]", "result": 0.86, "unit": "millimeter/sec"}, {"measurement": "Ratio", "setting": "[13]", "result": 4}, {"measurement": "Activity", "setting": "[14]", "result": 1.14, "unit": "%"}, {"measurement": "Activity", "setting": "[15]", "result": 1.13, "unit": "%"}, {"measurement": "Activity", "setting": "[16]", "result": 1.31, "unit": "%"}, {"measurement": "Activity", "setting": "[17]", "result": 1.21, "unit": "%"}, {"measurement": "Activity", "setting": "[18]", "result": 2.27, "unit": "%"}, {"measurement": "Activity", "setting": "[19]", "result": 1.34, "unit": "%"}, {"measurement": "Activity", "setting": "[20]", "result": 12.5, "unit": "µM"}, {"measurement": "Activity", "setting": "[21]", "result": "Toxic"}, {"measurement": "Activity", "setting": "[22]", "result": 50, "unit": "%"}, {"measurement": "Activity", "setting": "[23]", "result": 0.7, "unit": "%"}, {"measurement": "Activity", "setting": "[24]", "result": 0.89, "unit": "%"}, {"measurement": "Activity", "setting": "[25]", "result": 1.24, "unit": "%"}]}]}
